Results: publication PMC11597446, “Using the Cocrystal Approach as a Promising Drug Delivery System to Enhance the Dissolution and Bioavailability of Formononetin Using an Imidazole Coformer” (Pharmaceuticals, 2024)
Entries after “also recorded” stand apart in the source; their conditions may differ. Where two headings read alike, the source gives them in different places.

Assays:
[1] = Rat oral pharmacokinetics; type: in vivo, Male Sprague-Dawley rats; details: rats, oral 20 mg FMN/kg
Experimental: The study was carried out in rats at a 20 mg FMN/kg dose. The plasma concentration profiles and the PK parameters are presented in Figure 9 and Table 4, respectively.
The experiments were carried out in accordance with the Guidelines for Animal Experimentation of Nonclinical Center, Chaon Co. Ltd. (Yongin, Republic of Korea) and approved by the Animal Ethics Committee of the institution (CE23665) on 13 February 2024. Male Sprague−Dawley rats (230−300 g, 8 weeks) were obtained from Dae Han Bio Link Co., Ltd. (Eumseong-gun, Republic of Korea). All rats had free access to food and water in a controlled environment for one week. […] After stirring for 5 min at 37 °C, an appropriate volume (about 200 μL) of suspension was delivered via oral gavage at a dosage of 20 mg/kg body weight. Approximately 300 μL blood samples were obtained from tail veins and placed into tubes pretreated with sodium citrate before and after 0.25, 0.5, 1, 2, 4, 8, and 24 h of dosing. Blood samples were immediately centrifuged at 5000 rpm for 10 min. All the plasma samples were stored at −80 °C until analysis. FMN from plasma samples were prepared for analysis by liquid–liquid extraction using methyl tert-butyl ether according to the following steps: 60 µL internal standard (IS) solution (10 ng/mL in 50% methanol) was added to 70 µL plasma sample and […] was placed in a 15 mL tube. The sample solution was vortexed for 10 min followed by centrifugation for 5 min at 4000 rpm. The upper organic layer was transferred to a clean test tube and evaporated on a heating block at 50 °C under nitrogen. The residue was dissolved in the 50% acetonitrile (900 µL, in 0.1% formic acid) and mixed on a vortex mixer for 30 s. Resulting sample solution was transferred to auto-sampler vials, and 5 µL aliquot was injected into the LC/MS/MS system for analysis of FMN by a validated method as described below.
The pharmacokinetic data were analyzed by Winnlene (China Pharmaceutical University, Nanjing, China), using the noncompartmental method to calculate the peak plasma concentration (Cmax), the time to reach Cmax (Tmax), and the area under the plasma concentration−time curve (AUC).
FMN quantitative analysis was carried out using Agilent 1200 system (Agilent, Waldbronn, Germany) with triple quadrupole mass spectrometry API5000 (ABSciex, Vaughan, ON, Canada) operated in negative electrospray ionization using MRM mode. A Luna C8(2) column (2.1 mm I.D., 100 mm length, 5 μm; Phenomenex, Torrance, CA, USA) was maintained at 40 °C. Gradient elution was carried out at a flow rate of 0.3 mL/min using mobile phase A (distilled water) and mobile phase B (acetonitrile). The gradient applied was as follows: from 0 to 2.5 min, 50% B; from 2.6 to 7.0 min, 95% B; and from 7.1 to 11.5 min, 50% B. Sample volumes of 5 μL were injected. The fragmentation transitions were m/z 267.1 → 252.0 for FMN and m/z 197.0 → 92.0 for […], respectively. Optimized instrument settings specific for FMN and IS were as follows: curtain gas, 20 psi; ion source gas 1, 50 psi; ion source gas 2, 50 psi; ion spray voltage, −4500 V; turbo heater temperature, 650 °C. The precursor ions of FMN and IS were formed using declustering potentials of −90 and −40 V, respectively, and their precursor ions were fragmented at collision energies of −28 and −42 eV by collision-activated dissociation with nitrogen at a pressure setting of 5 (arbitrary units). Both quadrupoles were maintained at unit resolution. The ratio of the standard to IS peak area was used for calibration by linear regression analysis.

[2] = Physical stability test (PXRD after storage); type: physicochemical
Experimental: Powder samples in closed glass vials were stored at 4 and 40 °C. They were then analyzed by PXRD for crystallization at given time points. PXRD measurement conditions were the same as described above.

[3] = Powder dissolution experiment in bio-relevant media (FaSSGF, FaSSIF); details: 37 °C
Experimental: Bio-relevant media, FaSSGF and FaSSIF, were used for powder dissolution tests to mimic in vivo environments.
Powder samples were sieved through a 300 µm sieve. FaSSGF and FaSSIF were prepared according to the literature, except pepsin was not included in FaSSGF [41]. Samples equivalent to 5 mg of FMN were added to 20 mL glass vials containing 10 mL of FaSSGF or FaSSIF. Sample vials were placed in a shaking incubator (SIF-6000R, Jeio Tech, Daejeon, Republic of Korea) at 37 °C. Aliquots (1 mL) were collected at designated time points and filtered through a 0.45 µm PVDF filter and diluted with the HPLC mobile phase for HPLC analysis. Additional test for cocrystal was carried out in the presence of PVP K30 (2.5 mg/mL) in FaSSGF or FaSSIF.
FMN quantitative analysis was carried out using a Shimadzu system (Japan) equipped with a C8 column (5 μm, 4.6 mm I.D., and 150 mm length, Waters, Milford, MA, USA) at room temperature. The mobile phase was composed of methanol/water (60:40, v/v). Samples were injected in a volume of 10 μL with a total flow rate set at 1.0 mL/min. Detection was carried out at a UV wavelength of 254 nm. The area of the standard was used for calibration by linear regression analysis.

[4] = plasma FMN, suspension in 1% PVP-K30, n = 4

Compound	AUCinf [1, 4] [ng·h/mL]	Cmax [1, 4] [ng/mL]	T1/2 [1, 4] [h]	Tmax [1, 4] [h]	AUCt ([1]; plasma FMN, suspension in 1% PVP-K30, n = 4, mean ± SD) [ng·h/mL]	increase in AUC compared to crystalline FMN [1] [fold]	increase in Cmax compared to crystalline FMN [1] [fold]	physical stability (PXRD) after storage ([2]; six months at 4 and 40 °C, closed glass vials)	physical stability (PXRD) after storage ([2]; six months at 40 °C)	dissolution rate and concentration at 6 h compared with crystalline FMN [3]	AUC(0-inf) ([1]; male, Sprague-Dawley, rat, 20 mg/kg, plasma FMN, crystalline FMN suspension in 1% PVP-K30, n = 4) [ng·h/mL]	AUC(0-t) ([1]; male, Sprague-Dawley, rat, 20 mg/kg, plasma FMN, crystalline FMN suspension in 1% PVP-K30, n = 4, mean ± SD) [ng·h/mL]	Cmax ([1]; male, Sprague-Dawley, rat, 20 mg/kg, plasma FMN, crystalline FMN suspension in 1% PVP-K30, n = 4, read-out: Cmax) [ng/mL]	half-life ([1]; male, Sprague-Dawley, rat, 20 mg/kg, plasma FMN, suspension in 1% PVP-K30, n = 4) [h]	Tmax ([1]; male, Sprague-Dawley, rat, 20 mg/kg, plasma FMN, suspension in 1% PVP-K30, n = 4, read-out: Tmax) [h]
formononetin-imidazole [FMN-IMD cocrystal]	44.52 ± 19.11	8.93 ± 6.66	5.60 ± 2.19	0.44 ± 0.38	37.38 ± 20.97	3.58	4.93	remained the same for six months	no changes in the PXRD; also recorded: stable for six months	faster dissolution rate and higher concentration at the 6-h time point					
COc1ccc(-c2coc3cc(O)ccc3c2=O)cc1 [FMN, Formononetin]											16.4 ± 1.51	10.4 ± 3.19	1.81 ± 0.73	7.1 ± 3.35	5 ± 2
